The assay addresses T1, Full-length USP19 (Homo sapiens, UniProt O94966).
T1 construct: Full-length USP19 was purchased from Boston Biochem (E-576); purchased Boston Biochem E-576
T1 sequence (O94966 1-1318): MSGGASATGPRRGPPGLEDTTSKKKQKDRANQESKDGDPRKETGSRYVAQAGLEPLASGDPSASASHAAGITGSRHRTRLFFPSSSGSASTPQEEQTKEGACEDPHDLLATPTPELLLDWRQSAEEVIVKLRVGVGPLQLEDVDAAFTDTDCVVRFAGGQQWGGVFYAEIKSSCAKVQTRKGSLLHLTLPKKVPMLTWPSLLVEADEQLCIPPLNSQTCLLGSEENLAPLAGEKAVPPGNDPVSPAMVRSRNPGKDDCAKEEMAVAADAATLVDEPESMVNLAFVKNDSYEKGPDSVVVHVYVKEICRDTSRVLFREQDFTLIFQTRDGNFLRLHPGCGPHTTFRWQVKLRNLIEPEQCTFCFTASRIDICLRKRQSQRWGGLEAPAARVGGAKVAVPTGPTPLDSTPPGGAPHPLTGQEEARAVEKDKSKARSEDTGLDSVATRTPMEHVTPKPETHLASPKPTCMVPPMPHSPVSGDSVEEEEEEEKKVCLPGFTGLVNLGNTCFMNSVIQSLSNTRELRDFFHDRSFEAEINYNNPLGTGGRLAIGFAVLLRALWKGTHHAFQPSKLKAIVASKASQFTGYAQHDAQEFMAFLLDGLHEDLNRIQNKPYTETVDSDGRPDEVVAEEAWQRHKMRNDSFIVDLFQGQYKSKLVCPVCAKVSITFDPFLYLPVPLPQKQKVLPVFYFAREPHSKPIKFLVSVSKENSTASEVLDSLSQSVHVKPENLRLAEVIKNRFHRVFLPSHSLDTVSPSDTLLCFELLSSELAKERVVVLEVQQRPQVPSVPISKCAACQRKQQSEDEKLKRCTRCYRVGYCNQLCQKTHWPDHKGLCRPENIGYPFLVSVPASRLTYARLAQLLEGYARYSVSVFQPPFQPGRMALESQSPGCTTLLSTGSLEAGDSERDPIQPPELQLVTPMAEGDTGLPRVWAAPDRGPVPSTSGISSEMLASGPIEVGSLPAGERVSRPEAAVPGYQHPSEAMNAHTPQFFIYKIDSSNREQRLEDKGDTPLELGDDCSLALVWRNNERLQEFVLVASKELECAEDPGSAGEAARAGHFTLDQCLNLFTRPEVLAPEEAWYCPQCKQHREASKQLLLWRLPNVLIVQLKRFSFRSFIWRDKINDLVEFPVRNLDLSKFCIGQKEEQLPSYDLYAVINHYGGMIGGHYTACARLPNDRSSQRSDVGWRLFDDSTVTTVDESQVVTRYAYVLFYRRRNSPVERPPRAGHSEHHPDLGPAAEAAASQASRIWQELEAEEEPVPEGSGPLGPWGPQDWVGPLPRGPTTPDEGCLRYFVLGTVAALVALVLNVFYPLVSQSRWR
Nature of the assay: USP19 fluorescence polarisation (FP) homogeneous assay with Ubiquitin-Lys-TAMRA substrate. The class given is biochemical. As to conditions: 2.5 nM USP19, 30 min pre-incubation, average of at least two duplicate experiments. Summed up:
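Full-length USP19 preincubated 30 min at RT with inhibitor (200 μM to 2 μM series, 8–18 points) before adding 500 nM Ubiquitin-Lys-TAMRA substrate.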
In general terms: In fluorescence polarisation assays a small probe gives low polarisation when free and higher when bound to something large.

A value given as a limit tells only on which side of the number the result lay.

What is called IC50 is the concentration needed to halve the response being measured. Regarding `O=C(N1CC[C@@](O)(Cn2cnc(-c3ccccc3C(F)F)cc2=O)C2(CCCC2)C1)N1CCNC[C@H]1c1ccccc1` [Example 366, 6-(2-(Difluoro-methyl)phenyl)-3-(((S)-10-hydroxy-7-((R)-2-phenylpiperazine-1-carbonyl)-7-aza-spiro[4.5]decan-10-yl)methyl)pyrimidin-4(3H)-one], the IC50 was under 0.5 µM.

Take `C[C@H](CC1CCCCC1)C(=O)N1CCC(O)(CN2CCN(c3ccccc3)CC2=O)C2(CCCC2)C1` (stereo partly drawn) [Example 50, 1-((7-((R)-3-Cyclohexyl-2-methylpropanoyl)-10-hydroxy-7-azaspiro[4.5]decan-10-yl)methyl)-4-phenylpiperazin-2-one]: the IC50 was under 0.5 µM.

With `O=C(N1CCC(O)(Cn2cnc(-c3ccccc3)cc2=O)C2(CCCC2)C1)N1CCOC2CC21` (centres unmarked) [Example 243, 3-((7-(2-Oxa-5-azabicyclo[4.1.0]heptane-5-carbonyl)-10-hydroxy-7-azaspiro[4.5]decan-10-yl)methyl)-6-phenylpyrimidin-4(3H)-one], the IC50 fell in the range of 5 to 50 µM.

For `O=C(N1CC[C@@](O)(Cn2cnc(-c3ccccc3)cc2=O)C2(CCCC2)C1)N1CCOC[C@@H]1c1ccccc1` [Example 212, 3-(((S)-10-Hydroxy-7-((S)-3-phenylmorpholine-4-carbonyl)-7-azaspiro[4.5]decan-10-yl)methyl)-6-phenylpyrimidin-4(3H)-one], the half-inhibitory concentration (IC50) fell in the range of 50 to 250 µM.

For the molecule `Cn1nc(C(F)(F)F)cc1-c1ccn(C[C@]2(O)CCN(C(=O)N3CCNC[C@H]3c3ccccc3)CC23CCCC3)c(=O)c1` [Example 362, 1-(((S)-10-Hydroxy-7-((R)-2-phenylpiperazine-1-carbonyl)-7-azaspiro [4.5]decan-10-yl)methyl)-4-(1-methyl-3-(trifluoromethyl)-1H-pyrazol-5-yl)pyri-din-2(1H)-one], the IC50 is under 0.5 µM.

For the molecule `CC1(C)CN(C(=O)N2CCNC[C@H]2c2ccccc2)CC[C@@]1(O)Cn1cnc(-c2ccccc2)cc1=O` [Example 322, 3-(((S)-4-Hydroxy-3,3-dimethyl-1-((R)-2-phenylpiperazine-1-carbonyl)piperidin-4-yl)methyl)-6-phenylpyrimidin-4(3H)-one], the IC50 is under 0.5 µM.

For `O=C(N1CC[C@@](O)(Cn2cnc(-c3ccc(F)cc3)cc2=O)C2(CCCC2)C1)N1CCNC[C@H]1c1ccccc1` [Example 316, 6-(4-Fluorophenyl)-3-(((S)-10-hydroxy-7-((R)-2-phenylpiperazine-1-carbonyl)-7-azaspiro[4.5]decan-10-yl)methyl)pyrimidin-4(3H)-one], the half-maximal inhibitory concentration (IC50) is under 0.5 µM.

As to `C[C@H](CC1CCCCC1)C(=O)N1CCC(O)(Cn2cc(-c3ccncc3)ncc2=O)C2(CCCC2)C1` (stereo partly drawn) [Example 20, 1-((7-((R)-3-Cyclohexyl-2-methylpropanoyl)-10-hydroxy-7-azaspiro[4.5]decan-10-yl)methyl)-5-(pyridin-4-yl)pyrazin-2(1H)-one], the concentration for half-maximal inhibition (IC50) lay within 0.5 to 5 µM.

For `CC1(C)CN(C(=O)N2CCNC[C@H]2c2ccccc2)CC[C@@]1(O)Cn1ccc(-c2ccccc2)cc1=O` [Example 288, 1-(((S)-4-Hydroxy-3,3-dimethyl-1-((R)-2-phenylpiperazine-1-carbonyl)piperidin-4-yl)methyl)-4-phenylpyridin-2(1H)-one], the concentration for half-maximal inhibition (IC50) is under 0.5 µM.

Regarding `O=C(NCc1ccc2c(c1)COC2)N1CCC(O)(Cn2cnc(-c3ccccc3)cc2=O)C2(CCCC2)C1` (centres unmarked) [Example 260, N-((1,3-Dihydroisobenzofuran-5-yl)methyl)-10-hydroxy-10-((6-oxo-4-phenylpyrimidin-1(6H)-yl)methyl)-7-azaspiro[4.5]decane-7-carboxamide], the concentration for half-maximal inhibition (IC50) lay in the range of 5 to 50 µM.

Regarding `Cc1nc2cnccc2c(=O)n1CC1(O)CCN(C(=O)[C@H](C)CC2CCCCC2)CC12CCCC2` (stereo partly drawn) [Example 153, 3-((7-((R)-3-Cyclohexyl-2-methylpropanoyl)-10-hydroxy-7-azaspiro[4.5]decan-10-yl)methyl)-2-methylpyrido[3,4-d]pyrimidin-4(3H)-one], the 50% inhibitory concentration (IC50) was 0.5 to 5 µM.

Turning to `Cc1cccc(-c2cc(=O)n(C[C@]3(O)CCN(C(=O)N4CCNC[C@H]4c4ccccc4)CC34CCCC4)cn2)c1` [Example 341, 3-(((S)-10-Hydroxy-7-((R)-2-phenylpiperazine-1-carbonyl)-7-azaspiro[4.5]decan-10-yl)methyl)-6-(m-tolyl)pyrimidin-4(3H)-one], the IC50 is under 0.5 µM.

`O=C(N1CCC(O)(Cn2ccc3ccncc3c2=O)C2(CCCC2)C1)N1CCNC[C@H]1c1ccccc1` (stereo partly drawn) [Example 171, 2-((10-Hydroxy-7-((R)-2-phenylpiperazine-1-carbonyl)-7-azaspiro[4.5]decan-10-yl)methyl)-2,7-naphthyridin-1(2H)-one]: the IC50 is under 0.5 µM.

Turning to `O=C(NCc1cccs1)N1CC[C@@](O)(Cn2cnc(-c3ccccc3)cc2=O)C2(CCCC2)C1` [Example 214, (S)-10-Hydroxy-10-((6-oxo-4-phenylpyrimidin-1(6H)-yl)methyl)-N-(thiophen-2-ylmethyl)-7-azaspiro[4.5]decane-7-carboxamide], the IC50 was under 0.5 µM.

Turning to `Cn1cc(-c2cc(=O)n(C[C@]3(O)CCN(C(=O)N4CCOC[C@H]4c4ccccc4)CC34CCCC4)cn2)cn1` [Example 225, 3-(((S)-10-Hydroxy-7-((R)-3-phenylmorpholine-4-carbonyl)-7-azaspiro[4.5]decan-10-yl)methyl)-6-(1-methyl-1H-pyrazol-4-yl)pyrimidin-4(3H)-one], the 50% inhibitory concentration (IC50) was under 0.5 µM.

As to `C[C@H](CC(=O)N1CCC(O)(CN2CCN(c3ccccc3F)CC2=O)CC1)c1ccccc1` [Example 24, (R)-4-(2-Fluorophenyl)-1-((4-hydroxy-1-(3-phenylbutanoyl)piperidin-4-yl)methyl)piperazin-2-one], the IC50 was in the range of 50 to 250 µM.

Turning to `COc1cccc(C2CNCCN2C(=O)N2CCC(O)(Cn3cnc(-c4ccccc4)cc3=O)C3(CCCC3)C2)c1` (centres unmarked) [Example 272, 3-((10-Hydroxy-7-(2-(3-methoxyphenyl)piperazine-1-carbonyl)-7-azaspiro[4.5]decan-10-yl)methyl)-6-phenylpyrimidin-4(3H)-one], the IC50 lay in the range of 5 to 50 µM.

For the molecule `O=C(N1CCC(O)(Cn2cnc(-c3ccccc3)cc2=O)C2(CCCC2)C1)N1CCCC1c1cccnc1` (centres unmarked) [Example 245, 3-((10-Hydroxy-7-(2-(pyridin-3-yl)pyrrolidine-1-carbonyl)-7-azaspiro[4.5]decan-10-yl)methyl)-6-phenylpyrimidin-4(3H)-one], the half-maximal inhibitory concentration (IC50) was 0.5 to 5 µM.

With `N=S1(=O)CCN(C(=O)N2CC[C@@](O)(Cn3cnc(-c4ccccc4)cc3=O)C3(CCCC3)C2)[C@H](c2cc(F)ccc2F)C1` (mixture of isomers) [Example 395], the 50% inhibitory concentration (IC50) was under 0.5 µM.

For the molecule `CCn1ncc2c(=O)n(CC3(O)CCN(C(=O)[C@H](C)CC(F)(F)F)CC34CCCC4)cnc21` (stereo partly drawn) [Example 141, 1-Ethyl-5-((10-hydroxy-7-((R)-4,4,4-trifluroo-2-methylbutanoyl)-7-azaspiro[4.5]decan-10-yl)methyl)-1,5-dihydro-4H-pyrazolo[3,4-d]pyrimidin-4-one], the half-maximal inhibitory concentration (IC50) fell in the range of 5 to 50 µM.

For the molecule `O=C(N1CC[C@@](O)(Cn2cnc(Cl)cc2=O)C2(CCCC2)C1)N1CCOC[C@H]1c1ccc(F)cc1` [Example 282, 6-Chloro-3-(((S)-7-((R)-3-(4-fluorophenyl)morpholine-4-carbonyl)-10-hydroxy-7-azaspiro[4.5]decan-10-yl)methyl)pyrimidin-4(3H)-one], the concentration for half-maximal inhibition (IC50) was under 0.5 µM.

For `CSc1ncc2c(=O)n(CC3(O)CCN(C(=O)[C@H](C)CC(F)(F)F)CC34CCCC4)n(C)c2n1` (stereo partly drawn) [Example 64, 2-((10-Hydroxy-7-((R)-4,4,4-trifluoro-2-methylbutanoyl)-7-azaspiro[4.5]decan-10-yl)methyl)-1-methyl-6-(methylthio)-1,2-dihydro-3H-pyrazolo[3,4-d]pyrimidin-3-one], the IC50 was 0.5 to 5 µM.

Take `C[C@H](CC1CCCCC1)C(=O)N1CCC(O)(Cn2cnc3sccc3c2=O)C2(CCCC2)C1` (stereo partly drawn) [Example 132, 3-((7-((R)-3-Cyclohexyl-2-methylpropanoyl)-10-hydroxy-7-azaspiro[4.5]decan-10-yl)methyl)thieno[2,3-d]pyrimidin-4(3H)-one]: the IC50 was 0.5 to 5 µM.

These data come from patent publication US20220033397A1, “PHARMACEUTICAL COMPOUNDS AND THEIR USE AS INHIBITORS OF UBIQUITIN SPECIFIC PROTEASE 19 (USP19)” (ALMAC DISCOVERY LIMITED, priority 2018, published 2022).
